The source of these data is patent publication US4686283A, “Analogs of transforming and epidermal growth factor fragments for therapy and diagnosis” (Syntex (U.S.A.) Inc., priority 1985, dated 1987).

Experiment [1] concerns rabbit anti-TGF α-KLH IgG. The experiment can be described thus: Competitive radioimmunoassay: iodinated rabbit anti-TGF α-KLH IgG preincubated with inhibitor, then bound to BSA-peptide complex coated wells. Particulars: no inhibitor 8400 ± 600 cpm. The format is binding. The procedure:
A. Rabbit IgG antibodies to the compound [drawing 24] (anti-TGF α-KLH), as prepared in accordance with Example 7, were iodinated by the chloramine-T method. To 1 mg anti-TGF α-KLH antibody in 0.2M phosphate buffer (pH 7.6) was added 20 μl of a 2 mg/ml solution of chloramine-T and 1mCiNa^125 I for 3 minutes at room temperature. 1 mg KI was added and excess free iodine removed by chromatography on a Sephadex G-50 column. The specific activity of the antibodies varied between 200,000 and 400,000 counts per minute (cpm)/μg protein. Flexible polyvinylchloride plates were coated with a 1 mg/ml solution of BSA-peptide complex (prepared in accordance with Example 6A) in phosphate buffered saline (PBS) for 16 hours at 4° C. Plates were countered with a solution containing BSA and 1% Bovine gamma globulin.
These solutions were then added to the coated wells for an additional 2 hours at 37° C. After several washes with PBS containing 0.1% BSA, individual wells were cut apart and counted in a gamma counter.

The next experiment has as its target T1, EGF receptors (Mus musculus, UniProt Q01279).
T1 construct: endogenous in cells; host or cells: LE II murine lung endothelial cells
The experiment can be described thus: Competitive antagonism of 125I-EGF binding to LE II cells (Scatchard plots). Particulars: in the presence of 20 μg/ml peptide, 4° C.; for apparent association constant for EGF: lower = more effective competitor. The arrangement: species or system Murine. The procedure:
Murine lung endothelial cells identified as LE II were grown to confluence in 24 well cluster dishes in Dulbecco's minimal essential medium (DMEM) containing 10% fetal calf serum. Cells were washed twice with DMEM containing 1% bovine serum albumin and buffered at pH 7.4 with 50 mM Hepes buffer (DMEM-BSA). […] At the end of the incubation period, cells were washed three times with DMEM-BSA, lysed in 0.1N sodium hydroxide and cell-associated radioactivity was determined in a gamma counter.

Experiment [2] concerns LE II cells. The experiment can be described thus: Inhibition of TGFα-induced cell proliferation ([3H]-methylthymidine incorporation). The format is cell-based, Murine. Particulars: induced by 2 × 10^-9 M TGFα; for % of thymidine incorporation: control 420 ± 30. The procedure: (§1) LE II cells were grown to confluence in 48 well cluster dishes and starved for two days in DMEM containing 0.5% fetal calf serum.
(§2) The percent enhancement of thymidine incorporation was used as the measure of cell proliferation. The lower the percentage of thymidine incorporation, the lower the rate of cell proliferation. Inhibition of EGF-induced cell proliferation by the foregoing compounds is reflected in Table II. Table III gives the inhibition of TGFα-induced cell proliferation.

For experiment [3], the system named is LE II cells. The experiment can be described thus: Inhibition of EGF-induced cell proliferation ([3H]-methylthymidine incorporation). As to conditions: induced by 2 × 10^-9 M EGF; for % Enhancement of thymidine incorporation: control 380 ± 20. The experiment is classed as cell-based, Murine. The procedure: as §1, §2
Background: Incorporation of labelled thymidine or its analogues reports DNA synthesis.

Where a SMILES comes first, the peptide text is derived from it. Bridges are numbered along the chain shown (N, C = ends).

As to “TGFα: native human transforming growth factor alpha, used as inhibitor in the radioimmunoassay”, the “cpm of iodinated anti-TGF α-KLH IgG bound to coated wells” value is reported as 8600 ± 800 cpm in experiment [1] (inhibitor 1 ng/ml), 7600 ± 400 cpm in experiment [1] (inhibitor 10 ng/ml), 5100 ± 700 cpm in experiment [1] (inhibitor 100 ng/ml) and 3800 ± 400 cpm in experiment [1] (inhibitor 1000 ng/ml).

Take “H-Cys-His-Ser-Gly-Tyr-Val-Gly-Val-Arg-Cys-OH (H-CHSGYVGVRC-OH; disulfide 1-10 (inferred)) [TGFα fragment peptide]”: the “extrapolated saturation binding of 125I-EGF” value with EGF receptors (one hour, 0.51±0.03 nM in its absence) is 0.5 ± 0.02 nM.

Take `CC(C)[C@@H]1NC(=O)CNC(=O)[C@H](C(C)C)NC(=O)[C@H](Cc2ccc(O)cc2)NC(=O)CNC(=O)[C@H](CO)NC(=O)[C@H](Cc2c[nH]cn2)NC(=O)[C@@H](N)CSSC[C@@H](C(=O)O)NC(=O)[C@H](CCCNC(=N)N)NC1=O` [Peptide 1] (H-CHSGYVGVRC-OH; disulfide 1-10): the “% of thymidine incorporation, second figure relative to control = 100” value in the experiment with LE II cells [2] (peptide 10^-5 M) is on record as 79%; in the experiment with LE II cells [2] (peptide 10^-6 M) it was 95%; in the experiment on LE II cells [2] (peptide 10^-7 M), 95%. Also, the “% of thymidine incorporation” value in the experiment on LE II cells [2] (peptide 10^-5 M) is reported as 330 ± 10%; in the experiment on LE II cells [2] (peptide 10^-6 M), 400 ± 20%; with LE II cells [2] (peptide 10^-7 M), 400 ± 20%. The entries for the “% Enhancement of thymidine incorporation, second figure relative to control = 100 (ratio of TGF α fragment/EGF counts per minute)” value in the experiment on LE II cells [3] (peptide 10^-5 M), with LE II cells [3] (peptide 10^-6 M) and with LE II cells [3] (peptide 10^-7 M) were 70%, 95% and 103%, respectively. Besides, the “% Enhancement of thymidine incorporation” value is given as 265 ± 15% in the experiment on LE II cells [3] (peptide 10^-5 M) and 360 ± 20% in the experiment on LE II cells [3] (peptide 10^-6 M). Moreover, the “apparent association constant for EGF” value at EGF receptors is 1.5e+10 M⁻¹.

For `CC(C)[C@@H]1NC(=O)[C@H](Cc2ccc(O)cc2)NC(=O)CNC(=O)[C@H](CO)NC(=O)[C@H](Cc2c[nH]cn2)NC(=O)[C@@H](N)CSSC[C@@H](C(=O)O)NC(=O)[C@H](CCCNC(=N)N)NC(=O)[C@H](C)NC(=O)CNC1=O` [Peptide 2] (H-CHSGYVGARC-OH; disulfide 1-10), the entries for the “% Enhancement of thymidine incorporation, second figure relative to control = 100 (ratio of TGF α fragment/EGF counts per minute)” value with LE II cells [3] (peptide 10^-5 M), in the experiment on LE II cells [3] (peptide 10^-6 M) and with LE II cells [3] (peptide 10^-7 M) were 64%, 97% and 100%, respectively. For the same compound, the “% Enhancement of thymidine incorporation” value in the experiment with LE II cells [3] (peptide 10^-5 M) is 245 ± 25%; in the experiment on LE II cells [3] (peptide 10^-6 M) it was 370 ± 15%; with LE II cells [3] (peptide 10^-7 M), 380 ± 20%. Further, on EGF receptors, the “apparent association constant for EGF” value was 1.5e+10 M⁻¹.

With EGF: epidermal growth factor, the “cpm of iodinated anti-TGF α-KLH IgG bound to coated wells” value came out at 8800 ± 400 cpm in experiment [1] (inhibitor 10 ng/ml), 8200 ± 500 cpm in experiment [1] (inhibitor 100 ng/ml), 7600 ± 800 cpm in experiment [1] (inhibitor 1000 ng/ml) and 7800 ± 600 cpm in experiment [1] (inhibitor 10,000 ng/ml).
